Measured values as given in US11844350B2, “Plant growth regulation” (Syngenta Participations AG, priority 2017, dated 2023).

System: rice (Oryza sativa L.) varieties ADT45
Assay: Plant growth regulation field trial in rice, India (lodging, plant height, heat stress symptoms)
Assay type: in vivo
Description: Field trials were setup during the hot season in Annanagar and Kumbakonam in India. Local rice (Oryza sativa L.) varieties ADT45 was mechanically transplanted at four plants per hill with a plant spacing of 16 cm and a row spacing of 30 cm. All trials were performed in good level of water management. Fertilizer application, and weed, insect and disease control were carried out in accordance with the best local practice across the trial area. Commercial treated seeds were used (with no neonicotinoid compounds present).
The trial design was a randomized bloc design, with a plot size of 40 m^2 (12 rows, each […] and 10 m long); each trial had four replicates.
Overall trial quality was very high: there was no insect damage and no disease pressure or weeds; the plots were very homogenous. Heat stress level was low to medium with 5-10% empty spikelets in the untreated control.

COc1cccc(Nc2nc(F)nc3[nH]cnc23)c1 [Formula (Ia)]
Lodging (%) (10 g ai/ha, applied at panicle initiation (BBCH 30)): 29.0%
Lodging (%) (20 g ai/ha, applied at BBCH 30): 56.0%
Lodging compared to the untreated control (result in words): significantly reduces lodging
